Values joined by “and” are separate entries in the source; they are usually repeats but may differ in a detail not shown here. Equal entries are not always repeated.
Tests used:
nAChRs on SH-SY5Y cells [1] = assay: Desensitization of the nicotine response of SH-SY5Y cells; assay type: cell-based, human; details: pretreatment 20 min, nicotine 10 µM, PNU 10 µM
Method: To measure acute changes in the average [Ca^2+]i of a population, SH-SY5Y cells were examined in the 96-well plate fluorescence reader FlexStation II (Molecular Devices) using the fluorophore Fura-2AM. SH-SY5Y (35,000 cells/well; 109,375 cells/cm^2) were seeded in maintenance culture medium in black 96-well plates with clear bottom (Corning, #3603). 24 h after seeding, maintenance medium was replaced with differentiation medium. […] The fluorescence was assessed at 37 °C in the fluorescence plate reader (FlexStation II; Molecular Devices) at two different excitation wavelengths, 340 nm for Ca^2+-bound Fura-2 and 380 nm for free Fura-2, and at 510 nm emission, every 3.1 s using bottom read settings. After 26–29 s of initial baseline recording of the fluorescence intensity, 10 µl of the compound dilution (10 times higher than the final concentration to the cells) was transferred automatically by the FlexStation II (“Flex mode”) to the cell plate wells (five wells per concentration) and the fluorescence intensity was monitored for another 150 s. The ratio of fluorescence intensity at 340/380 nm was determined and the mean values from the baseline recording before the addition of test compounds was set to zero. The acute change in the Ca^2+ influx after the addition of the compounds was quantified as the area under the curve (AUC) using the SoftMax Pro 4.8 software (Molecular Devices). […]

nAChRs on SH-SY5Y cells [2] = assay: [Ca2+]i measurements in SH-SY5Y cells (agonist effect); assay type: cell-based, human
Method: (§1) SH-SY5Y cells were cultured as previously described (Attoff et al. [2016]). Briefly, they were cultured in MEM supplemented with 10% fetal bovine serum (Gibco, 31330095), 1% non-essential amino acid solution (Gibco, 11140035), 2 mM L-glutamine (Gibco, 25030024), 100 μg/ml streptomycin, and 100 U/ml penicillin (Gibco, 15140122). For maintenance culture, SH-SY5Y cells were seeded at 27,000 cells/cm^2 in 75 cm^2 cell culture flasks (Corning). The cells were passaged once a week using TrypLE Express Enzyme (Gibco). SH-SY5Y cells were differentiated into a neuronal-like phenotype by exchanging the maintenance medium with differentiation medium consisting of DMEM/F12 (Gibco, 31330095) supplemented with 1 mM L-glutamine (Gibco, 25030024), 100 μg streptomycin/mL, 100 U penicillin/mL, 1 × N2-supplement (Gibco, 17502048) and 1 µM all-trans retinoic acid (RA, Sigma, R2625) 24 h after seeding. The cells were incubated in 100% humidity at 37 °C in air with 5% CO2.
(§2) To measure acute changes in the average [Ca^2+]i of a population, SH-SY5Y cells were examined in the 96-well plate fluorescence reader FlexStation II (Molecular Devices) using the fluorophore Fura-2AM. SH-SY5Y (35,000 cells/well; 109,375 cells/cm^2) were seeded in maintenance culture medium in black 96-well plates with clear bottom (Corning, #3603). 24 h after seeding, maintenance medium was replaced with differentiation medium. After 72 h of differentiation, Fura-2AM dissolved in DMSO and diluted in KRH buffer (125 mM NaCl, 5 mM KCl, 1.2 mM MgSO4, 1.2 mM KH2PO4, 2.0 mM CaCl2, 6.0 mM D-glucose, and 25 mM HEPES (free acid), pH adjusted to 7.4 by 1.0 M NaOH) were added to the medium to a final concentration of 4 µM (Gustafsson et al. [2010]). The plates were incubated for 30 min at 37 °C before cells were washed once with 200 µl KRH buffer. 90 µl of KRH buffer without or with 10 µM PNU-120596 (PNU) and/or 125 µM mecamylamine (Mec) and/or test chemicals in different concentrations for antagonist experiments were added to the Fura-2AM-loaded cells. The plate was again incubated for 20 min to allow full hydrolysis of the AM group before the experiment. The fluorescence was assessed at 37 °C in the fluorescence plate reader (FlexStation II; Molecular Devices) at two different excitation wavelengths, 340 nm for Ca^2+-bound Fura-2 and 380 nm for free Fura-2, and at 510 nm emission, every 3.1 s using bottom read settings. After 26–29 s of initial baseline recording of the fluorescence intensity, 10 µl of the compound dilution (10 times higher than the final concentration to the cells) was transferred automatically by the FlexStation II (“Flex mode”) to the cell plate wells (five wells per concentration) and the fluorescence intensity was monitored for another 150 s. The ratio of fluorescence intensity at 340/380 nm was determined and the mean values from the baseline recording before the addition of test compounds was set to zero. The acute change in the Ca^2+ influx after the addition of the compounds was quantified as the area under the curve (AUC) using the SoftMax Pro 4.8 software (Molecular Devices). All test compounds were dissolved in DMSO. Compounds were diluted in KRH buffer in 1:3 series, with 100 µM as the highest concentration. As a negative control, 0.1% DMSO in KRH buffer was used.

nAChRs on SH-SY5Y cells [3] = molecular target: nAChRs on SH-SY5Y cells (Homo sapiens, UniProt P36544); assay: as above; assay type: cell-based; details: presence of PNU
nAChRs on SH-SY5Y cells (Homo sapiens, UniProt P36544), sequence (P36544 23-502): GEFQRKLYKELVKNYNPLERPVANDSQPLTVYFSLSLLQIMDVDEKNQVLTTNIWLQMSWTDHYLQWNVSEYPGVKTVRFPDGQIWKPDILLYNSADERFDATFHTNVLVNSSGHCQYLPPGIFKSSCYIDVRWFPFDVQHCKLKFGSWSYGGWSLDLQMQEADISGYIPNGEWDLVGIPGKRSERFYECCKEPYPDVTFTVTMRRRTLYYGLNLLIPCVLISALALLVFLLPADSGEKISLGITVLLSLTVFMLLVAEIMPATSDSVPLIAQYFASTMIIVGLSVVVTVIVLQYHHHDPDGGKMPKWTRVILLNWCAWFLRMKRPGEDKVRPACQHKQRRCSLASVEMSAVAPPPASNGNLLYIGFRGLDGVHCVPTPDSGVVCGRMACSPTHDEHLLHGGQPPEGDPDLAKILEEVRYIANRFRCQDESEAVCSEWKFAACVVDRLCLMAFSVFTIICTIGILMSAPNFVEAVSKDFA
Method: as §1, §2

NC1=NCCN1Cc1ccc(Cl)nc1 [DN-IMI, desnitro-imidacloprid]
effect of pretreatment on the response to nicotine in SH-SY5Y (nAChRs on SH-SY5Y cells [1]): reduced/abolished the response to nicotine in the submicromolar range | response without PNU as % of the maximal response obtained in the presence of PNU (nAChRs on SH-SY5Y cells [2]; absence of PNU): about 44% | estimated maximum (nAChRs on SH-SY5Y cells [2]; absence of PNU, normalized to 10 µM nicotine): ~ 0.44 | relative pEC50 (AUC of fluorescence) (nAChRs on SH-SY5Y cells [2]; absence of PNU, normalized to 10 µM nicotine, fit for < 10 µM): 6.8 ± 0.36 | concentration of peak response (nAChRs on SH-SY5Y cells [2]; presence of PNU, declining responses at higher concentrations): ~ 3 µM | estimated maximum (nAChRs on SH-SY5Y cells [2]; presence of PNU, normalized to 10 µM nicotine): ~ 0.93 | relative pEC50 (AUC of fluorescence) (nAChRs on SH-SY5Y cells [3]; normalized to 10 µM nicotine, fit for < 10 µM): 6.5 ± 0.07 | EC50 (nAChRs on SH-SY5Y cells [3]; read-out: half-maximal response concentration): 300 nM and ~300 nM
